Assays:
[1] = target: T1, full-length MALT1 protein (Strep-MALT1(1-824)-His) (Homo sapiens, UniProt Q9UDY8); assay: MALT1 Biochemical Protease Assay; settings: 10 nM FL MALT1, 200 μM Ac-LRSR-AMC, 50 min pre-incubation, 4 h at RT; read-out: MALT1_Biochemical activity (Ac-LRSR-amc) IC50
T1 construct: full-length MALT1 protein (Strep-MALT1(1-824)-His) purified from baculovirus-infected insect cells; Strep (N); His (C); made in house; host or cells: baculovirus-infected insect cells
T1 sequence (Q9UDY8 1-824): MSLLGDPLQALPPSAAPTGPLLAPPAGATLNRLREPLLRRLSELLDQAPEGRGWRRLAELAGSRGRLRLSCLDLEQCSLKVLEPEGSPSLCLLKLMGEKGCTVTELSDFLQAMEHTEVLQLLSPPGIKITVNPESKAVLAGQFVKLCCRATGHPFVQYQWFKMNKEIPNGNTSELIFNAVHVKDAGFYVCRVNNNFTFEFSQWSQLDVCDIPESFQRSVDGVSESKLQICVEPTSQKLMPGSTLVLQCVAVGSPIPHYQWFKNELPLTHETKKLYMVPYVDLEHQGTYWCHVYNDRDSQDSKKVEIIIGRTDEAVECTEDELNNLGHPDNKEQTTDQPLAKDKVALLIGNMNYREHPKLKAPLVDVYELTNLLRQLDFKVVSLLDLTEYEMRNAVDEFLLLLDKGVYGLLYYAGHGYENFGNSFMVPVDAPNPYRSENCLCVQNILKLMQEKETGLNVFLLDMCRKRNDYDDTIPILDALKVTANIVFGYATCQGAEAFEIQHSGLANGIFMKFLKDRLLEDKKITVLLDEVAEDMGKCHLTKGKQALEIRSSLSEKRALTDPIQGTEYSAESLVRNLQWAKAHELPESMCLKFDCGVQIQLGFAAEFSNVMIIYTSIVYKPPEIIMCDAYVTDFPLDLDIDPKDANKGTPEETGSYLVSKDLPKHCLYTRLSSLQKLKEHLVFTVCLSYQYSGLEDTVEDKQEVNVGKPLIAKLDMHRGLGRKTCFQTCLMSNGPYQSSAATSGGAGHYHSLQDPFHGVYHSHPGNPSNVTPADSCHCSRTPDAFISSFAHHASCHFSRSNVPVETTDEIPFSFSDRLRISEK
Method: MALT1 protease activity was assessed in an in vitro assay using a tetrapeptide as substrate and full-length MALT1 protein (Strep-MALT1(1-824)-His) purified from baculovirus-infected insect cells. The tetrapeptide LRSR is coupled to AMC (7-amino-4-methylcoumarin) and provides a quenched, fluorescent substrate for the MALT1 protease (SM Biochemicals). Cleavage of AMC from the Arginine residue results in an increase in coumarin fluorescence measured at 460 nm (excitation 355 nm). The final assay buffer consisted of 10 nM FL MALT1 protein, 200 μM Ac-LRSR-AMC, 50 mM Tris pH 7.5, 0.6 M Citrate, 1 mM DTT, 1 mM EDTA, 0.05% BSA and 1.5% DMSO. Test compounds were spotted at 50 nL in 100% DMSO per well of a black 384-Proxiplate (Perkin Elmer). Test compound concentrations ranged from 30 μM to 0.5 nM using 11 dilution steps (1:3). Background signal was measured from control wells containing assay buffer without enzyme which functions as low control (LC). High control (HC) values were generated using the reaction with enzyme but no compound treatment. Compounds were pre-incubated with MALT1 enzyme for 50 minutes at RT. Substrate was added subsequently and fluorescence was measured in Labsystems fluoroskan at excitation 355 nm and emission 460 nm to determine time 0. The reaction was subsequently incubated for 4 h at RT and fluorescence was measured. For IC50 calculations, timepoint 0 was subtracted from the 4 h timepoint to correct for any potential autofluorescence of the compounds. The enzyme reaction was linear during the 4 h incubation period. Characterization of the substrate Ac-LRSR-AMC determined the Michaelis constant KM at 200 μM.
IC50 values were calculated using the following formula (Z prime should be >0.5): […]
A best-fit curve was fitted by a minimum sum of squares method to the plot of % Controlmin vs. compound concentration. From this an IC50 value (inhibitory concentration causing 50% inhibition) can be obtained. An estimate of the slope of the plot in terms of the Hill coefficient was also obtained.
Used in “Lexis Dose Response Curve Fitting” Version 1.0.

[2] = system: secretion of IL10 by OCI-LY3 ABC-DLBCL cells; assay: Human IL10 Mesoscale assay (OCI-LY3); type: cell-based; settings: 24 h incubation, IL10 in supernatant
Method: (§1) NFKB signaling regulates the secretion of multiple cytokines, including IL6 and IL10. Secretion of the cytokines IL6 and IL10 by OCI-LY3 ABC-DLBCL cells was measured using a mesoscale assay. Inhibition of NFKB signaling by MALT1 inhibitors results in a decrease of IL6/10 secretion.
(§2) OCI-LY3 cells were propagated in RPMI-1640 (Sigma Aldrich) supplemented with 10% fetal bovine serum (HyClone), 1 mM sodium pyruvate (Invitrogen), 2 mM L-glutamine (Sigma Aldrich) and 1% PenStrep (Sigma Aldrich). Cell passage number should not exceed 30. Cells should be kept between 0.5-2.5 million cells per mL during culturing and cells should be supplemented every 2-3 days with fresh 50 μM beta-mercaptoethanol. No beta-mercaptoethanol was used during the mesoscale assay.
(§3) For the Mesoscale assay, 100,000 OCI-LY3 cells were seeded per well into black-colored 96-well plates with clear bottom (Corning #3904) and test compounds were added in 9 dilution steps (1:2) ranging from 15 μM to 58.6 nM (final DMSO concentration 0.3%). DMSO control wells were used to determine the maximum signal (High Control (HC)). Treatment with the BTK inhibitor RN486 in a dose range from 30 nM to […] (9 dilutions of 1:2) served as a positive control for NFKB pathway inhibition and was used to determine the maximum inhibition (Low Control (LC)). Compounds and cells were incubated for 24 h at 37° C. and 5% CO2 (assay volume is 150 μL). After 24 h of incubation 50 μL of the supernatant was transferred to a MSD plate (V-Plex Proinflammation Panel 1 (human) kit, Mesoscale (MSD)) and incubated for 2 h with vigorous shaking (600 rpm) at room temperature. Following incubation, plates were washed 3× with PBS+0.05% Tween-20 and 25 μL detection antibody solution (IL6 & IL10 antibodies in diluent 3 (MSD)) was added per well followed by 2 h of incubation with vigorous shaking (600 rpm) at room temperature. After 3× washes with PBS+0.05% Tween-20, plates were incubated with 150 μL 2× Read Buffer T and read on SECTOR imager.

[3] = system: secretion of IL6 by OCI-LY3 ABC-DLBCL cells; assay: Human IL6 Mesoscale assay (OCI-LY3); type: cell-based; settings: 24 h incubation, IL6 in supernatant
Method: as §1, §2, §3

SMILES	IC50 [1] [nM]	IC50 [2] [nM]	IC50 [3] [nM]	IC50 ([2]; Homo sapiens) [nM]	IC50 ([3]; Homo sapiens) [nM]
CO[C@H](C)c1c(NC(=O)Nc2cnc(OC(F)F)c(Cl)c2)cnc(C)c1Cl [Co. 74]	1350	650	930		
CO[C@@H](C)c1c(Cl)cncc1NC(=O)Nc1cnc(-n2nccn2)c(Cl)c1 [Co. 24]	4570	3980	5620		
COc1c(C)ncc(NC(=O)Nc2cnc(-n3nccn3)c(Cl)c2)c1[C@@H](C)OC [Co. 42]	540	980	1100		
CO[C@@H](C)c1c(NC(=O)Nc2cnc(OC(F)F)c(Cl)c2)cnc(C)c1C#N [Co. 70]	50	30	60		
COc1ncc(NC(=O)Nc2cnc(C)c(Br)c2[C@H](C)OC)cc1C#N [Co. 97]	80	90	140		
CO[C@@H](C)c1c(NC(=O)Nc2cnc(-n3nccn3)c(C(F)(F)F)c2)cnc(C)c1Cl [Co. 111]	30	60	90		
COC(C)c1cc(C)ncc1NC(=O)Nc1cnc(-n2nccn2)c(Cl)c1 (racemic) [Co. 106]	9120	5750	7240		
COc1c(C)ncc(NC(=O)Nc2cnc(-n3nccn3)c(Cl)c2)c1[C@H](C)OC [Co. 43]	12000	> 15000	> 15000		
CO[C@H](C)c1c(NC(=O)Nc2ccnc(C(F)(F)F)c2)cnc(C)c1Cl [Co. 64]	170	190	680		
CO[C@H](C)c1c(NC(=O)Nc2cnc(-n3nccn3)c(C(F)(F)F)c2)cnc(C)c1C#N [Co. 100]	30	60	90		
CO[C@@H](C)c1c(NC(=O)Nc2cnc(OC(F)F)c(Cl)c2)cnc(C)c1Cl [Co. 73]	80	60	110		
COC(C)c1c(NC(=O)Nc2cnc(-n3nccn3)c(Cl)c2)cncc1C(N)=O (racemic) [Co. 39]	8710	14100	> 15100		
CO[C@H](C)c1c(NC(=O)Nc2cnc(C3CC3)c(Cl)c2)cnc(C)c1Br [Co. 55]	110	210	580		
COc1ncc(NC(=O)Nc2cnc(C)c(Br)c2C(C)OC)cc1C#N (single isomer, unassigned) [Co. 98]	5890	2570	5750		
CO[C@@H](C)c1c(NC(=O)Nc2cnc(-n3nccn3)c(Cl)c2)cnc(C)c1C#N [Co. 61]	40	90	130		
COC(C)c1c(NC(=O)Nc2ccnc(C(F)(F)F)c2)cnc(C)c1Cl (single isomer, unassigned) [Co. 65]	15100	6610	> 15000		

Results, then the compound that gave them:

IC50 [1] [nM]	IC50 [2] [nM]	IC50 [3] [nM]	IC50 ([2]; Homo sapiens) [nM]	IC50 ([3]; Homo sapiens) [nM]	SMILES
20	40	60			CO[C@@H](c1c(NC(=O)Nc2cnc(-n3nccn3)c(C(F)(F)F)c2)cnc(C)c1C#N)C1CC1 [Co. 121]
100			140	150	CC[C@H](OC)c1c(NC(=O)Nc2cnc(-n3nccn3)c(C(F)(F)F)c2)cnc(C)c1C#N (single isomer, unassigned) [Co. 150]
> 30000			> 15000	> 15000	COc1c(NC(C)(C)C)ncc(NC(=O)Nc2cnc(-n3nccn3)c(C(F)(F)F)c2)c1C(C)OC (stereo not drawn) [Co. 152]
50			50	80	CO[C@@H](c1c(NC(=O)Nc2cnc(-n3nccn3)c(C(F)(F)F)c2)cnc(C)c1Cl)C1CC1 (single isomer, unassigned) [Co. 143]
50			~110	190	[2H]C([2H])([2H])Oc1cncc(NC(=O)Nc2cnc(-n3nccn3)c(C(F)(F)F)c2)c1[C@@H](C)OC (single isomer, unassigned) [Co. 130]
550			310	930	CO[C@@H](C)c1c(NC(=O)Nc2cnc(-n3nccn3)c(C(F)(F)F)c2)cnc(C(F)F)c1Cl (single isomer, unassigned) [Co. 133]
40			~45	60	CO[C@H](C)c1c(NC(=O)Nc2cnc(-n3nccn3)c(C(F)(F)F)c2)cnc(C(F)F)c1Br (single isomer, unassigned) [Co. 144]
270			160	320	COc1cncc(NC(=O)Nc2cc(C(F)(F)F)c(-n3nccn3)nc2OC)c1[C@@H](C)OC (single isomer, unassigned) [Co. 146]
20			70	~100	CO[C@@H](C)c1c(NC(=O)Nc2cnc(-n3nccn3)c(C(F)(F)F)c2)cnc(N)c1Br (single isomer, unassigned) [Co. 139]
1450	2240	4570			COc1cncc(NC(=O)Nc2cnc(-n3nccn3)c(C(F)(F)F)c2)c1[C@H](C)OC [Co. 125]
1020			~890	2340	[2H]C([2H])([2H])O[C@@H](C)c1c(NC(=O)Nc2cnc(-n3nccn3)c(C(F)(F)F)c2)cncc1OC (single isomer, unassigned) [Co. 131]
30			~60	~60	CC[C@@H](OC)c1c(NC(=O)Nc2cnc(-n3nccn3)c(C(F)(F)F)c2)cnc(C)c1C#N (single isomer, unassigned) [Co. 148]
60	130	140			CO[C@H](c1c(NC(=O)Nc2cnc(-n3nccn3)c(C(F)(F)F)c2)cnc(C)c1C#N)C1CC1 [Co. 122]

Reference: US12404260B2, “Pyridine rings containing derivatives as MALT1 inhibitors” (Janssen Pharmaceutica NV, priority 2019, dated 2025)
